Test results published in patent EP4745135A1 (Gluetacs Therapeutics (Shanghai) Co., Ltd., priority 2023, dated 2025).

What was measured:
IKZF2 = target: T1, IKZF2 (Homo sapiens, UniProt Q96SW2+Q9UKS7); test: Western blot, degradation of substrate protein in hPBMCs; type: cell-based
T1 construct: effects of the compounds of the present disclosure on the expression of target proteins in cells; endogenous in cells; host or cells: human PBMCs (Milecell Biotechnologies)

IKZF3 = target: T2, IKZF3 (Homo sapiens, UniProt Q96SW2+Q9UKT9); test: as above; type: cell-based
T2 construct: effects of the compounds of the present disclosure on the expression of target proteins in cells; endogenous in cells; host or cells: human PBMCs (Milecell Biotechnologies)

CK1α = target: T3, CK1α (Homo sapiens, UniProt P48729+Q96SW2); test: as above; type: cell-based
T3 construct: effects of the compounds of the present disclosure on the expression of target proteins in cells; endogenous in cells; host or cells: human PBMCs (Milecell Biotechnologies)

IKZF1 = target: T4, IKZF1 (Homo sapiens, UniProt Q13422+Q96SW2); test: as above; type: cell-based
T4 construct: effects of the compounds of the present disclosure on the expression of target proteins in cells; endogenous in cells; host or cells: human PBMCs (Milecell Biotechnologies)

WEE1 = target: T5, WEE1 (Homo sapiens, UniProt P30291+Q96SW2); test: as above; type: cell-based
T5 construct: effects of the compounds of the present disclosure on the expression of target proteins in cells; endogenous in cells; host or cells: human PBMCs (Milecell Biotechnologies)

[1] = target: T6, human Cereblon WT GST-tagged protein (Homo sapiens, UniProt Q96SW2); test: CRBN-binding affinity, HTRF (CEREBLON BINDING kit); conditions: for inhibition at 0.5 µM: read-out: Inhibition Rate at 0.5 µM (%); for inhibition at 2 µM: read-out: Inhibition Rate at 2 µM (%)
T6 construct: purchased CISBIO 64BDCRBNPEH

GSPT1 = test: Western blot, degradation of substrate protein in hPBMCs; type: cell-based, Human
[2] = Western blot, 24 hours of compound treatment, compounds tested at 50 nM and 500 nM (concentration for the table not stated)
[3] = 24 hours treatment, compounds at 50 nM and 500 nM (concentration behind the class not stated)

T4 sequence (Q13422 whole entry): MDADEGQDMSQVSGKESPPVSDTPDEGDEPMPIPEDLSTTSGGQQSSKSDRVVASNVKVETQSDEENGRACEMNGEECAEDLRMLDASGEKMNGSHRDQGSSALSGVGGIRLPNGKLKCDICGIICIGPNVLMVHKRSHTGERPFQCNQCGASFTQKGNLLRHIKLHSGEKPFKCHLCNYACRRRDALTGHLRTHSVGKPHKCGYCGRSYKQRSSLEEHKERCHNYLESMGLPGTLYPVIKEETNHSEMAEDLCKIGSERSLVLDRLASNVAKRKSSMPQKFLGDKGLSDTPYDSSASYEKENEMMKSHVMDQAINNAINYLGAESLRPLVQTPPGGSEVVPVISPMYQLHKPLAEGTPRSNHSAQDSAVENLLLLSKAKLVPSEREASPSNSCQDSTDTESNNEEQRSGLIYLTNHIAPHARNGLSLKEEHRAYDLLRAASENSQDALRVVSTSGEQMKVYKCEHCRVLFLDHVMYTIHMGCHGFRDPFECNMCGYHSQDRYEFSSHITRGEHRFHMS
T4 sequence (Q96SW2 whole entry): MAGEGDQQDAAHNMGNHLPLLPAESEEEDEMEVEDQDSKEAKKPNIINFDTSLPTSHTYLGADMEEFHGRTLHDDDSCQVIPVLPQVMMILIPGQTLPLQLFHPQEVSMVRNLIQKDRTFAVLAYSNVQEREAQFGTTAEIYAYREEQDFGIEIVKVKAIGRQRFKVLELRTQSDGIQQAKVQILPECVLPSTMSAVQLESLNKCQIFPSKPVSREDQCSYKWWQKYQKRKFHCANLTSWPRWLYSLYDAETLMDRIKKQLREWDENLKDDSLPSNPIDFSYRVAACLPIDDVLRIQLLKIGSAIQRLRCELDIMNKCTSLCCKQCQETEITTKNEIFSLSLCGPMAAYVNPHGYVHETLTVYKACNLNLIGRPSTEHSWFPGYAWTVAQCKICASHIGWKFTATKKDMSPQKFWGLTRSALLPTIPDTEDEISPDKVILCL
T4 sequence (Q16531 whole entry partner): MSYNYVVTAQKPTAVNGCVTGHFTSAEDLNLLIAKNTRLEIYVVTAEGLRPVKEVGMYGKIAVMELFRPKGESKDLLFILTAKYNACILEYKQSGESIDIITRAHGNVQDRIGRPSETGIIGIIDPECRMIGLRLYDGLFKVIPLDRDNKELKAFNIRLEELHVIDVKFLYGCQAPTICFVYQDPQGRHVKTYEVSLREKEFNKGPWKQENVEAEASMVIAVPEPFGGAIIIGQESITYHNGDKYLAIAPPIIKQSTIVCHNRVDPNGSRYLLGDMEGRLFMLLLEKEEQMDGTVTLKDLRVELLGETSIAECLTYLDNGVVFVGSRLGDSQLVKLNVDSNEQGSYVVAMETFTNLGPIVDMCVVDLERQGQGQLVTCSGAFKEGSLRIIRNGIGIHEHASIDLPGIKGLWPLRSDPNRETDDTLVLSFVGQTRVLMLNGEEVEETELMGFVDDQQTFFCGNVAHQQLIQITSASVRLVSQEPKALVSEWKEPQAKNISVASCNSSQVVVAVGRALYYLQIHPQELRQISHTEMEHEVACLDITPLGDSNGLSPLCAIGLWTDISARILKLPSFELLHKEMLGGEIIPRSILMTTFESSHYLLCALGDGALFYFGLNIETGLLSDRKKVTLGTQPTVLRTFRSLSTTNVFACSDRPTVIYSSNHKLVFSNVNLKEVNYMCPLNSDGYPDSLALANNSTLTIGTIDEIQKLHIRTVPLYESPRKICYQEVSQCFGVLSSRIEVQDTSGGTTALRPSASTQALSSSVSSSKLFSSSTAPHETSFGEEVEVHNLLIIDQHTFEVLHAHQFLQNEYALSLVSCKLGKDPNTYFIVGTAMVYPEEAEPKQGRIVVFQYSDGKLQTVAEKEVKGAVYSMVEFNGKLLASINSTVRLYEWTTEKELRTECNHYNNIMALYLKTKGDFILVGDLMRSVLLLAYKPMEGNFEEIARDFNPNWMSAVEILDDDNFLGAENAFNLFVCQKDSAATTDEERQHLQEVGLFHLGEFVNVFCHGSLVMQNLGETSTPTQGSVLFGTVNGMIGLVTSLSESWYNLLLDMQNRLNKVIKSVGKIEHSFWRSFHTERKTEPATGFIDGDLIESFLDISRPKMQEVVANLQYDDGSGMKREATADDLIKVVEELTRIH
T1 sequence (Q9UKS7 whole entry): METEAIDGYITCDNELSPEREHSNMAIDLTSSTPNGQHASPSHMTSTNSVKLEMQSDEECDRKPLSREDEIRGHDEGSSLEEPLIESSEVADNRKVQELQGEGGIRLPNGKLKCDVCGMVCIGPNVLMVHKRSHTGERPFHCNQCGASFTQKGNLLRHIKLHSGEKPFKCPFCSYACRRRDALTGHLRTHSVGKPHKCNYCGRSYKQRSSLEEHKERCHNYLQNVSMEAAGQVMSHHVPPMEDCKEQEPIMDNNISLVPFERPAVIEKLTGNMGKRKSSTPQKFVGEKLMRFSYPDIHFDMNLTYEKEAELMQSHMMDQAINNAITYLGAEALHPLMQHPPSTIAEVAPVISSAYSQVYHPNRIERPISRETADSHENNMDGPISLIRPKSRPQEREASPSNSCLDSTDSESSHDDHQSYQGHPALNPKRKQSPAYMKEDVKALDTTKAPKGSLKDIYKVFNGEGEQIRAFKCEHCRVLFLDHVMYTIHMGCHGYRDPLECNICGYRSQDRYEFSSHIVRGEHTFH
T1 sequence (Q96SW2 whole entry): as the sequence (Q96SW2 whole entry) above
T1 sequence (Q16531 whole entry partner): as the sequence (Q16531 whole entry partner) above
T6 sequence (Q96SW2 whole entry): as the sequence (Q96SW2 whole entry) above
T3 sequence (P48729 whole entry): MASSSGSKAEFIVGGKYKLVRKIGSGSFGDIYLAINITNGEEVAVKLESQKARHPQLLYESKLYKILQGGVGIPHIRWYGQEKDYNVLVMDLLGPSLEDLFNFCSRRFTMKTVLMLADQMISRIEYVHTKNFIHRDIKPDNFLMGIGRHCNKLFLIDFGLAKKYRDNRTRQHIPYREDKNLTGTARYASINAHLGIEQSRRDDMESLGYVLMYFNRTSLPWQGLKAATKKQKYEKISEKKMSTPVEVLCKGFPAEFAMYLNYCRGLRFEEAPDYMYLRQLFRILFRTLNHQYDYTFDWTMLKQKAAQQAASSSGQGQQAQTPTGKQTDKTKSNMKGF
T3 sequence (Q96SW2 whole entry): as the sequence (Q96SW2 whole entry) above
T3 sequence (Q16531 whole entry partner): as the sequence (Q16531 whole entry partner) above
T5 sequence (P30291 whole entry): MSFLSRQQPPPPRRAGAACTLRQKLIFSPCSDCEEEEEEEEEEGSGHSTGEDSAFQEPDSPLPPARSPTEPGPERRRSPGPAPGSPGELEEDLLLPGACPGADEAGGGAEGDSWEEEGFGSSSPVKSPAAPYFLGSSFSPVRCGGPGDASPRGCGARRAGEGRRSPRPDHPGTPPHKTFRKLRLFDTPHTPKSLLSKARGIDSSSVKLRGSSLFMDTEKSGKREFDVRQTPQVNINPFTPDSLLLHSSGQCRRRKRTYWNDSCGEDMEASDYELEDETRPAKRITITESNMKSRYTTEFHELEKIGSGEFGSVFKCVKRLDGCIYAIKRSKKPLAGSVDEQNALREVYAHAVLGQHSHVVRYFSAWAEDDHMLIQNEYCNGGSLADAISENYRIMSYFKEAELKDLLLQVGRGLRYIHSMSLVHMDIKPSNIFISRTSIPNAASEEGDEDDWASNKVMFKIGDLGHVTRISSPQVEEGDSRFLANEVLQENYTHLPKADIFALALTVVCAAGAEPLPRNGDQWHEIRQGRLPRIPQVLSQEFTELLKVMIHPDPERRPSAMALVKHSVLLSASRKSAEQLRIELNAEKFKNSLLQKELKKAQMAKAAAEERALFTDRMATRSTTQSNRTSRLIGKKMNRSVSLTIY
T5 sequence (Q96SW2 whole entry): as the sequence (Q96SW2 whole entry) above
T5 sequence (Q16531 whole entry partner): as the sequence (Q16531 whole entry partner) above
T2 sequence (Q9UKT9 whole entry): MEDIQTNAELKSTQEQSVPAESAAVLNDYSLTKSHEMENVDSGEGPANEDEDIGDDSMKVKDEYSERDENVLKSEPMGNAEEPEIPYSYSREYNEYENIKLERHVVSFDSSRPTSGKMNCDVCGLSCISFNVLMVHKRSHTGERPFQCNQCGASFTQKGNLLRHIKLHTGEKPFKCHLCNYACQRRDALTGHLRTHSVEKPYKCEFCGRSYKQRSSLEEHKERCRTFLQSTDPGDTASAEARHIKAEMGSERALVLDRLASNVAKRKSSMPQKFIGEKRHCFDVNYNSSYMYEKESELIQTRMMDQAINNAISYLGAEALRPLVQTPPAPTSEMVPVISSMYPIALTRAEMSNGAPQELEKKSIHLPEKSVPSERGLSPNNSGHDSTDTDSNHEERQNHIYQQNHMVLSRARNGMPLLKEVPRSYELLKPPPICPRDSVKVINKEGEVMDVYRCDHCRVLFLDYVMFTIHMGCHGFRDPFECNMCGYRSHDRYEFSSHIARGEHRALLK
T2 sequence (Q96SW2 whole entry): as the sequence (Q96SW2 whole entry) above
T2 sequence (Q16531 whole entry partner): as the sequence (Q16531 whole entry partner) above

Compound | inhibition at 0.5 µM [1] [%] | inhibition at 2 µM [1] [%] | IC50 ([1]; CRBN binding, HTRF, 3 hours at room temperature, read-out: HTRF IC50) [nM] | IKZF2 substrate protein remaining % (IKZF2; [2]) | IKZF3 substrate protein remaining % (IKZF3; [2]) | CK1α substrate protein remaining % (CK1α; [2]) | IKZF 1 substrate protein remaining % (IKZF1; [2]) | Wee1 substrate protein remaining % (WEE1; [2]) | GSPT1 substrate protein remaining % (GSPT1; [2]) | IKZF2 substrate protein remaining % (IKZF2; [3]) | IKZF3 substrate protein remaining % (IKZF3; [3]) | CK1α substrate protein remaining % (CK1α; [3]) | IKZF 1 substrate protein remaining % (IKZF1; [3]) | Wee1 substrate protein remaining % (WEE1; [3]) | GSPT1 substrate protein remaining % (GSPT1; [3])
O=C1CCC(N2Cc3cc(CN4C[C@@H]5C[C@H]4CN5C(c4ccccc4)c4ccccc4)ccc3C2=S)C(=O)N1 (stereo partly drawn) [GT-07739, 3-(5-(((1S,4S)-5-benzhydryl-2,5-diazabicyclo[2.2.1]heptan-2-yl)methyl)-1-thioxoisoindolin-2-yl)piperidine-2,6-dione] | 60 to 80 | 80 to 100 |  | A (0% ≤ substrate protein remaining % ≤ 80%) | B (80%< substrate protein remaining %≤ 100%) | B (80%< substrate protein remaining %≤ 100%) | A (0% ≤ substrate protein remaining % ≤ 80%) | B (80%< substrate protein remaining %≤ 100%) | A (0% ≤ substrate protein remaining % ≤ 80%) |  |  |  |  |  | 
O=C1CCC(N2Cc3c(CN4CC=C(c5ccoc5)CC4)cccc3C2=S)C(=O)N1 (centres unmarked) [GT-08319, 3-(4-((4-(furan-3-yl)-3,6-dihydropyridin-1 (2H)-yl)methyl)-1-thioxoisoindolin-2-yl)piperidine-2,6-dione] | 40 to 53 | 80 to 100 |  |  |  |  |  |  |  | B (80%< substrate protein remaining %≤ 100%) | A (0% ≤ substrate protein remaining % ≤ 80%) | B (80%< substrate protein remaining %≤ 100%) | B (80%< substrate protein remaining %≤ 100%) | A (0% ≤ substrate protein remaining % ≤ 80%) | B (80%< substrate protein remaining %≤ 100%)
O=C1CCC(N2Cc3cc(CN4CCN(C(c5ccc(Cl)cc5)c5ccc(Cl)cc5)CC4)ccc3C2=S)C(=O)N1 (centres unmarked) [GT-07737, 3-(5-((4-(bis(4-chlorophenyl)methyl)piperazin-1-yl)methyl)-1-thioxoisoindolin-2-yl)piperidine-2,6-dione] | 30 to 40 | 53 to 60 |  | A (0% ≤ substrate protein remaining % ≤ 80%) | A (0% ≤ substrate protein remaining % ≤ 80%) | B (80%< substrate protein remaining %≤ 100%) | A (0% ≤ substrate protein remaining % ≤ 80%) | B (80%< substrate protein remaining %≤ 100%) | A (0% ≤ substrate protein remaining % ≤ 80%) |  |  |  |  |  | 
O=C1CCC(N2Cc3c(CN4CCC(c5ccnc6cc(F)ccc56)CC4)cccc3C2=S)C(=O)N1 (centres unmarked) [GT-08858, 3-(4-((4-(7-fluoroquinolin-4-yl)piperidin-1-yl)methyl)-1-thioxoisoindolin-2-yl)piperidine-2,6-dione] | 60 to 80 | 80 to 100 |  |  |  |  |  |  |  | B (80%< substrate protein remaining %≤ 100%) | B (80%< substrate protein remaining %≤ 100%) | B (80%< substrate protein remaining %≤ 100%) | B (80%< substrate protein remaining %≤ 100%) | A (0% ≤ substrate protein remaining % ≤ 80%) | B (80%< substrate protein remaining %≤ 100%)
O=C1CCC(N2Cc3c(CN4CCC(c5ncnc6scc(-c7ccccc7)c56)CC4)cccc3C2=S)C(=O)N1 (centres unmarked) [GT-08930, 3-(4-((4-(5-phenylthieno[2,3-d]pyrimidin-4-yl)piperidin-1-yl)methyl)-1-thioxoisoindolin-2-yl)piperidine-2,6-dione] | 53 to 60 | 80 to 100 |  |  |  |  |  |  |  | B (80%< substrate protein remaining %≤ 100%) | B (80%< substrate protein remaining %≤ 100%) | B (80%< substrate protein remaining %≤ 100%) | B (80%< substrate protein remaining %≤ 100%) | A (0% ≤ substrate protein remaining % ≤ 80%) | B (80%< substrate protein remaining %≤ 100%)
O=C1CCC(N2Cc3cc(CN4CC=C(c5cccc6cnccc56)CC4)ccc3C2=S)C(=O)N1 (centres unmarked) [GT-05246, 3-(5-((4-(isoquinolin-5-yl)-3,6-dihydropyridin-1(2H)-yl)methyl)-1-thioxoisoindolin-2-yl)piperidine-2,6-dione] |  |  | 100 to 500 | B (80%< substrate protein remaining %≤ 100%) | B (80%< substrate protein remaining %≤ 100%) | B (80%< substrate protein remaining %≤ 100%) | B (80%< substrate protein remaining %≤ 100%) | A (0% ≤ substrate protein remaining % ≤ 80%) | A (0% ≤ substrate protein remaining % ≤ 80%) |  |  |  |  |  | 
O=C1CCC(N2Cc3c(CN4CCC(N5CCOc6cc(F)ccc65)CC4)cccc3C2=S)C(=O)N1 (centres unmarked) [GT-08852, 3-(4-((4-(7-fluoro-2,3-dihydro-4H-benzo[b][1,4]oxazin-4-yl)piperidin-1-yl)methyl)-1-thioxoisoindolin-2-yl)piperidine-2,6-dione] | 40 to 53 | 80 to 100 |  |  |  |  |  |  |  | B (80%< substrate protein remaining %≤ 100%) | B (80%< substrate protein remaining %≤ 100%) | B (80%< substrate protein remaining %≤ 100%) | B (80%< substrate protein remaining %≤ 100%) | A (0% ≤ substrate protein remaining % ≤ 80%) | B (80%< substrate protein remaining %≤ 100%)

Second part, led by results:

inhibition at 0.5 µM [1] [%] | inhibition at 2 µM [1] [%] | IC50 ([1]; CRBN binding, HTRF, 3 hours at room temperature, read-out: HTRF IC50) [nM] | Compound | IKZF2 substrate protein remaining % (IKZF2; [2]) | IKZF3 substrate protein remaining % (IKZF3; [2]) | CK1α substrate protein remaining % (CK1α; [2]) | IKZF 1 substrate protein remaining % (IKZF1; [2]) | Wee1 substrate protein remaining % (WEE1; [2]) | GSPT1 substrate protein remaining % (GSPT1; [2]) | IKZF2 substrate protein remaining % (IKZF2; [3]) | IKZF3 substrate protein remaining % (IKZF3; [3]) | CK1α substrate protein remaining % (CK1α; [3]) | IKZF 1 substrate protein remaining % (IKZF1; [3]) | Wee1 substrate protein remaining % (WEE1; [3]) | GSPT1 substrate protein remaining % (GSPT1; [3])
53 to 60 | 80 to 100 |  | Cc1cc(N2CCN(Cc3cccc4c3CN(C3CCC(=O)NC3=O)C4=S)CC2)cc(C)n1 (centres unmarked) [GT-08806, 3-(4-((4-(2,6-dimethylpyridin-4-yl)piperazin-1-yl)methyl)-1-thioxoisoindolin-2-yl)piperidine-2,6-dione] | B (80%< substrate protein remaining %≤ 100%) | B (80%< substrate protein remaining %≤ 100%) | B (80%< substrate protein remaining %≤ 100%) | B (80%< substrate protein remaining %≤ 100%) | A (0% ≤ substrate protein remaining % ≤ 80%) | B (80%< substrate protein remaining %≤ 100%) |  |  |  |  |  | 
40 to 53 | 80 to 100 |  | Cc1ccccc1N1CCN(Cc2ccc3c(c2)CN(C2CCC(=O)NC2=O)C3=S)CC1 (centres unmarked) [GT-08601, 3-(1-thioxo-5-((4-(o-tolyl)piperazin-1-yl)methyl)isoindolin-2-yl)piperidine-2,6-dione] | B (80%< substrate protein remaining %≤ 100%) | B (80%< substrate protein remaining %≤ 100%) | B (80%< substrate protein remaining %≤ 100%) | B (80%< substrate protein remaining %≤ 100%) | B (80%< substrate protein remaining %≤ 100%) | A (0% ≤ substrate protein remaining % ≤ 80%) |  |  |  |  |  | 
60 to 80 | 80 to 100 |  | Cc1nc(C2=CCN(Cc3cccc4c3CN(C3CCC(=O)NC3=O)C4=S)CC2)c2ccsc2n1 (centres unmarked) [GT-08959, 3-(4-((4-(2-methylthieno[2,3-d]pyrimidin-4-yl)-3,6-dihydropyridin-1(2H)-yl)methyl)-1-thioxoisoindolin-2-yl)piperidine-2,6-dione] |  |  |  |  |  |  | B (80%< substrate protein remaining %≤ 100%) | B (80%< substrate protein remaining %≤ 100%) | B (80%< substrate protein remaining %≤ 100%) | B (80%< substrate protein remaining %≤ 100%) | A (0% ≤ substrate protein remaining % ≤ 80%) | B (80%< substrate protein remaining %≤ 100%)
40 to 53 | 60 to 80 |  | O=C1CCC(N2Cc3c(CN4CCN(c5cc(F)ccc5F)CC4)cccc3C2=S)C(=O)N1 (centres unmarked) [GT-08593, 3-(4-((4-(2,5-difluorophenyl)piperazin-1-yl)methyl)-1-thioxoisoindolin-2-yl)piperidine-2,6-dione] | B (80%< substrate protein remaining %≤ 100%) | B (80%< substrate protein remaining %≤ 100%) | B (80%< substrate protein remaining %≤ 100%) | B (80%< substrate protein remaining %≤ 100%) | A (0% ≤ substrate protein remaining % ≤ 80%) | B (80%< substrate protein remaining %≤ 100%) |  |  |  |  |  | 
53 to 60 | 60 to 80 |  | O=C1CCC(N2Cc3c(CN4CCN(c5ncc(Cl)cc5Cl)CC4)cccc3C2=S)C(=O)N1 (centres unmarked) [GT-08703, 3-(4-((4-(3,5-dichloropyridin-2-yl)piperazin-1-yl)methyl)-1-thioxoisoindolin-2-yl)piperidine-2,6-dione] | B (80%< substrate protein remaining %≤ 100%) | B (80%< substrate protein remaining %≤ 100%) | B (80%< substrate protein remaining %≤ 100%) | B (80%< substrate protein remaining %≤ 100%) | A (0% ≤ substrate protein remaining % ≤ 80%) | B (80%< substrate protein remaining %≤ 100%) |  |  |  |  |  | 
